In patent US8598342B2, “Methods and compounds for antimicrobial intervention” (President and Fellows of Harvard College, priority 2008, dated 2013):
Entries after “also recorded” stand apart in the source; their conditions may differ.

Assays:
Assay type in all cases: cell-based, Staphylococcus aureus
[1] = tested on: WTA biosynthesis in S. aureus RN4220; assay: PAGE analysis of WTAs isolated from S. aureus RN4220 grown with tunicamycin; conditions: increasing but sub-lethal concentrations of tunicamycin
S. aureus [2] = assay: Two dimensional drug interaction analysis between tunicamycin and targocil; conditions: normally inhibitory concentrations of targocil; 18 h at 30° C.
Description: (A) Targocil MIC data for a panel of Gram-positive strains, including MRSA clinical isolates B5271 and 5340A. Growth was monitored in triplicate after 12 h at 28° C. using optical density. (B) Two dimensional drug interaction analysis between tunicamycin and targocil grown for 18 h at 30° C. […] At higher concentrations, tunicamycin is toxic because it inhibits cell wall biosynthesis. […] Varying concentrations of drug were added to […] of S. aureus RN4220 after 5 h and cell count was monitored over time at 30° C. […] Cells were grown at 28° C. for 12 h and monitored for growth using optical density (OD600). Data were normalized to the DMSO controls for each strain. (E) Two classes of mutants were examined: phage resistant (m1 3) and phage sensitive (m4-5).
Having discovered targocil, the next challenge was to identify its target in S. aureus. We first used the natural product tunicamycin to verify that targocil requires the presence of a functional WTA pathway. Although toxic at high concentrations, tunicamycin is a selective TarO inhibitor that abolishes WTA expression at sublethal concentrations. (Hancock I C, Wiseman G, & Baddiley J (1976) Febs Letters 69:75-80) We predicted that tunicamycin should antagonize targocil by preventing flux into the WTA biosynthetic pathway. […]

S. aureus RN4220 = assay: Phage infection (PFUs) of S. aureus grown with tunicamycin; conditions: increasing tunicamycin
S. aureus [3] = assay: SAR of targocil analogs: MIC and mutation frequency
From the text: Based on the discovery of targocil as an inhibitor of WTA biosynthesis, further studies of the antibiotic were undertaken to elucidate the basis of its activity and to discover other antibiotics based on the structure of targocil. The goal for the initial SAR of targocil was to alter only the A ring to determine modifications that would improved potency as measured by MIC. We developed synthetic chemistry schemes to modify the targocil scaffold and, initially, nineteen different derivatives of targocil were made. […] Modifications to the D ring appear particularly promising. Finally, the optimized compounds from this second round of SAR could then be used to discover modifications to the amine group that could be tolerated.

Compound: tunicamycin
- WTA biosynthesis (PAGE of isolated WTAs) [1]: dose-dependent decrease
- antagonism of targocil by tunicamycin (S. aureus [2]): complete protection; also recorded: antagonizes the lethal effect of targocil
- phage infection (PFUs) (S. aureus RN4220): dose-dependent decrease

Compound: CCN(CC)c1nc2c(S(=O)(=O)c3ccccc3)nnn2c2cc(OC)c(OC)cc12 [Compound 4-22-7, N,N-Diethyl-7,8-dimethoxy-3-(phenylsulfonyl)-[1,2,3]triazolo[1,5-a]quinazolin-5-amine]
- mutation frequency, relative to targocil (S. aureus [3]; in vitro): better
- potency as measured by MIC, relative to targocil (S. aureus [3]; two methoxy groups at R1 and R2 of ring A): more potent
